Data taken from PMC10810011 (Expert opinion on drug delivery, 2023).

Legend:
[1] = molecular target: beta1 adrenergic (Homo sapiens, UniProt P08588); experiment: InVEST radioligand filter binding, beta1 adrenergic; conditions: M13 20 μM, 100 = no effect
[2] = molecular target: 5-HT2B (Homo sapiens, UniProt P41595); experiment: InVEST radioligand filter binding, 5-HT2B; conditions: M13 20 μM, 100 = no effect
[3] = molecular target: Muscarinic M1 (Homo sapiens, UniProt P11229); type: binding; conditions: M13 20 μM, 100 = no effect
Chain of Muscarinic M1 (P11229 whole entry): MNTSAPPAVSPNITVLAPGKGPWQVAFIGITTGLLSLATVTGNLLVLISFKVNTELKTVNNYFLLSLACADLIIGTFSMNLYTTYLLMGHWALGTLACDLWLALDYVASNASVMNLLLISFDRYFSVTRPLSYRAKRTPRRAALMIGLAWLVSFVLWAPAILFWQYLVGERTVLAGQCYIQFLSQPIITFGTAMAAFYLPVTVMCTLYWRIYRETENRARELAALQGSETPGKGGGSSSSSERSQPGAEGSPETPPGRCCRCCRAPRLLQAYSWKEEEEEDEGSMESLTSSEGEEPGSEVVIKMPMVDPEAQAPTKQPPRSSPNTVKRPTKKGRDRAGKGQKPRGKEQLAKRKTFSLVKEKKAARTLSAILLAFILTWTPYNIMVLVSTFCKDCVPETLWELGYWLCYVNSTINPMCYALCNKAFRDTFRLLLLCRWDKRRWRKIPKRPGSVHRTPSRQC

[4] = molecular target: D1 dopamine (Homo sapiens, UniProt P21728); conditions: M13 20 μM, 100 = no effect
Chain of D1 dopamine (P21728 whole entry): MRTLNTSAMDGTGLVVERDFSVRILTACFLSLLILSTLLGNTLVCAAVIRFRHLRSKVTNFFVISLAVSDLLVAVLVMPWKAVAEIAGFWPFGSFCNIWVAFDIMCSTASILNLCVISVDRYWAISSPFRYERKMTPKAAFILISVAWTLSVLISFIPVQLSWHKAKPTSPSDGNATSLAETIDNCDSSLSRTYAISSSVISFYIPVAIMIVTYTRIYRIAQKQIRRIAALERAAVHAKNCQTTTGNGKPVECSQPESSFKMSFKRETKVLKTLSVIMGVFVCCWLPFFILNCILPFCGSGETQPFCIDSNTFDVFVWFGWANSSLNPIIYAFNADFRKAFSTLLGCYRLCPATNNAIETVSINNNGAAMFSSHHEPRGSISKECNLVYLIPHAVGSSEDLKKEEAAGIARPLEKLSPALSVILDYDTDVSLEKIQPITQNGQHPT

[5] = molecular target: T1, Muscarinic M2 (Homo sapiens, UniProt P08172); experiment: InVEST radioligand filter binding, Muscarinic M2; conditions: M13 20 μM, 100 = no effect
T1 sequence (P08172 1-466): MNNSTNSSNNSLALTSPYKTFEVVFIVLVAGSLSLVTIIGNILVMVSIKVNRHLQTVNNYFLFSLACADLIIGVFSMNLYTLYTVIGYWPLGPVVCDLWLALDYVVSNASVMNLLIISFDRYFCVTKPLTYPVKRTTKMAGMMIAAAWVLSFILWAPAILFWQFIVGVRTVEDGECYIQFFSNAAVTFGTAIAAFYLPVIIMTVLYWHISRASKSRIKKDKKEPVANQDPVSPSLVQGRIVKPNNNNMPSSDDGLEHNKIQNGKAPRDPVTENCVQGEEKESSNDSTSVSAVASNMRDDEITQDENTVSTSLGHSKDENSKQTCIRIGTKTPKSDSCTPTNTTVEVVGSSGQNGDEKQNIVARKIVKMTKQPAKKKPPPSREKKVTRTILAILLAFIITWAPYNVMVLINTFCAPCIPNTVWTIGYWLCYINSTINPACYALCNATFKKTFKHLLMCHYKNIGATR

[6] = molecular target: T2, 5-HT3 (Homo sapiens, UniProt P46098); experiment: InVEST radioligand filter binding, ion channel 5-HT3; conditions: M13 20 μM, 100 = no effect
T2 sequence (P46098 24-478): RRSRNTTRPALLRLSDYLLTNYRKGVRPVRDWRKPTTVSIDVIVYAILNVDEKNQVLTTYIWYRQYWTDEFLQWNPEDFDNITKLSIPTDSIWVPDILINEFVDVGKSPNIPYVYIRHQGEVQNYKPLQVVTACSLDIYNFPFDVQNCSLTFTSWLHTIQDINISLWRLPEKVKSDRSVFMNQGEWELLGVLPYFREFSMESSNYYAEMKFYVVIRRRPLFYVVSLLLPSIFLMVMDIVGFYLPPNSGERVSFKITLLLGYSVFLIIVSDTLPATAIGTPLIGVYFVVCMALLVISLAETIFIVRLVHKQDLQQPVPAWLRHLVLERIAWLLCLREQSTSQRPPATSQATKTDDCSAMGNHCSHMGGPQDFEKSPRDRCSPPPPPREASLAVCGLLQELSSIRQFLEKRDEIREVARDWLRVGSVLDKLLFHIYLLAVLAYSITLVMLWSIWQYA

[7] = pKa determination; type: physicochemical; conditions: UV metric at pH 2–12
[8] = tested on: HCT-116 cells; experiment: MTT cytotoxicity, 2D HCT-116; type: cell-based, human; conditions: 24 h
[9] = Metabolic stability with mouse intestinal microsomes; conditions: 30 min incubation, HPLC
[10] = tested on: Salmonella typhimurium TA98; experiment: Ames test, strain TA98; conditions: +S9 or -S9
[11] = molecular target: A1 adenosine (Homo sapiens, UniProt P30542); experiment: InVEST radioligand filter binding, A1 adenosine; conditions: M13 20 μM, 100 = no effect
Chain of A1 adenosine (P30542 whole entry): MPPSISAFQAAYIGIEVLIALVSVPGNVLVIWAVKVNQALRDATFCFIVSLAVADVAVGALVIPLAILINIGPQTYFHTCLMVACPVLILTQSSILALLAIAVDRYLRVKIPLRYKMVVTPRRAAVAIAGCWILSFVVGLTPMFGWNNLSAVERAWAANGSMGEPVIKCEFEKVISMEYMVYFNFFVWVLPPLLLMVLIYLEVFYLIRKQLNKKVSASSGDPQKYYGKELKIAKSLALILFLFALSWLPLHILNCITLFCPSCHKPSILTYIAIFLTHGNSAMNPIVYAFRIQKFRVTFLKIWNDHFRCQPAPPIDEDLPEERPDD

[12] = tested on: Salmonella typhimurium TA100; experiment: Ames test, strain TA100; conditions: +S9 or -S9
[13] = molecular target: T3, CCK (Homo sapiens, UniProt P32238); experiment: InVEST radioligand filter binding, CCK; conditions: CCK, M13 20 μM, 100 = no effect
T3 sequence (P32238 1-428): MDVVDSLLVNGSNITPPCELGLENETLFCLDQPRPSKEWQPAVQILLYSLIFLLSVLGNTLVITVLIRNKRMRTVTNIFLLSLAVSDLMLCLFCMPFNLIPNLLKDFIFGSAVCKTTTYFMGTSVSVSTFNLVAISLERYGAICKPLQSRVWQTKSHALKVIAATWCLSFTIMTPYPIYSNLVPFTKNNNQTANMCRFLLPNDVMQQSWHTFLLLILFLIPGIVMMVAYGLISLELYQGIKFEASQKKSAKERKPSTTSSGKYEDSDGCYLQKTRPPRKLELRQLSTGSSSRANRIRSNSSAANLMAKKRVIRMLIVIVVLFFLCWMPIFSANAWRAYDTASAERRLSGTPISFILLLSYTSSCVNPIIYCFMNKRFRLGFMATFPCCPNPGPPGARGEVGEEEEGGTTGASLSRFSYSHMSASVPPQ

[14] = tested on: intestinal microbiota of AOM/DSS-induced CAC mice; experiment: Intestinal microbiota analysis in AOM/DSS-induced CAC mice; type: in vivo, mouse; conditions: feces day 60
[15] = tested on: Caco-2/BBe cells; experiment: Cancer-related protein expression, Human XL oncology array; type: cell-based; conditions: Caco-2/BBe lysates, 24 h; free M13 5 μg/mL, M13-NL 10 μg/mL (5 μg/mL M13)
[16] = molecular target: 5-HT2A (Homo sapiens, UniProt P28223); experiment: InVEST radioligand filter binding, 5-HT2A; conditions: M13 20 μM, 100 = no effect
Chain of 5-HT2A (P28223 whole entry): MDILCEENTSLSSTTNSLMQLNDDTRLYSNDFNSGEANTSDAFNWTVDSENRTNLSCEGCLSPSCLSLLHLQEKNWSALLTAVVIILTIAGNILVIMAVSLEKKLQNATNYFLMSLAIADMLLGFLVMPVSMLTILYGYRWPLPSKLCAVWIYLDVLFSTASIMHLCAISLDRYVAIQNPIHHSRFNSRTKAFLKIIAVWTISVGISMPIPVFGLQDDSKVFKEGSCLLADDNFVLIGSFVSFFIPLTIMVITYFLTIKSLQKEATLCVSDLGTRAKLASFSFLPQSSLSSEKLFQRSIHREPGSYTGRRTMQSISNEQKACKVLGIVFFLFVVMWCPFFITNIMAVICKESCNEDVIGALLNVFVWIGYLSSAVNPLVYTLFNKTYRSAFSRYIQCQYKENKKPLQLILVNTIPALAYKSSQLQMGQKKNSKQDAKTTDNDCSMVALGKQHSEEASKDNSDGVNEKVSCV

Chain of beta1 adrenergic (P08588 whole entry): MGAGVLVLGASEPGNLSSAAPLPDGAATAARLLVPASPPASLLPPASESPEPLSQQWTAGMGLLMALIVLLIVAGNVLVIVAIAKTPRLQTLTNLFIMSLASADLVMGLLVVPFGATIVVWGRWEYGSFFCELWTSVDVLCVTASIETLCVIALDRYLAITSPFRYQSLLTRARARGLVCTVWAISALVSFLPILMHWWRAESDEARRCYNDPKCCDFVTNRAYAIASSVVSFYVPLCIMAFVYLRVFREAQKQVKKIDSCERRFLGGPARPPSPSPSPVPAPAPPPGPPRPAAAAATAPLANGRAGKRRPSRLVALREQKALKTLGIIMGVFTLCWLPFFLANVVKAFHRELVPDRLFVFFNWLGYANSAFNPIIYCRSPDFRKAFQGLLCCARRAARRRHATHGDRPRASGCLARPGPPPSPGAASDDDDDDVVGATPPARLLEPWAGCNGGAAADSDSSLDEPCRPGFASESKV
Chain of 5-HT2B (P41595 whole entry): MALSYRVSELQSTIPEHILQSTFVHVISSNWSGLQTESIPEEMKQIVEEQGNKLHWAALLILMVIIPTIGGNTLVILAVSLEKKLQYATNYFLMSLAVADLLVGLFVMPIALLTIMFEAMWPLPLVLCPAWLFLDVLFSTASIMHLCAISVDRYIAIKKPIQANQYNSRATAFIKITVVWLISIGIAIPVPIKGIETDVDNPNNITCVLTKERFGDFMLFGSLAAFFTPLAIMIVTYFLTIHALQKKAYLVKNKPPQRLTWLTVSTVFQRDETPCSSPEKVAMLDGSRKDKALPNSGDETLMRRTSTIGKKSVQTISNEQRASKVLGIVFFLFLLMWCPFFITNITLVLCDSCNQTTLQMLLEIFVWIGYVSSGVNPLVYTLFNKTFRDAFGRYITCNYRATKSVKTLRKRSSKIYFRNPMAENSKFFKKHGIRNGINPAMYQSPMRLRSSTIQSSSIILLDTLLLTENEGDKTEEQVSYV

Compound: CCCCCC(CC(=O)CCc1ccc(O)c(OC)c1)SC[C@H](NC(=O)CC[C@H](N)C(=O)O)C(=O)NCC(=O)O (stereo partly drawn) [M13, 5-glutathione-6-shogaol]
- % Activity Data 1 ([1]; repetition 1): 120%
- % Activity Data 2 ([1]; repetition 2): 116%
- % Activity Data 1 ([2]; repetition 1): 109%
- % Activity Data 2 ([2]; repetition 2): 113%
- % Activity Data 1 ([3]; repetition 1): 111%
- % Activity Data 2 ([3]; repetition 2): 113%
- % Activity Data 1 ([4]; repetition 1): 100%
- % Activity Data 2 ([4]; repetition 2): 116%
- % Activity Data 1 ([5]; repetition 1): 93%
- % Activity Data 2 ([5]; repetition 2): 115%
- % Activity Data 1 ([6]; repetition 1): 98%
- % Activity Data 2 ([6]; repetition 2): 100%
- pKa1 [7]: 3.24
- pKa2 [7]: 9.12
- pKa3 [7]: 10.42
- IC50 ([8]; HCT-116, MTT): 40.1 µM
- fold by which IC50 against HIEC-6 is higher than against HCT-116 ([8]; MTT): 2.5 fold
- % of the input retained after incubation with mouse intestinal microsomes [9]: 86%
- number of revertant colonies ([10]; TA98, 156 ~ 5000 μg/plate): did not increase
- mutation factor ([10]; TA98, all concentrations 156 ~ 5000 μg/plate): less than 1.6
- % Activity Data 1 ([11]; repetition 1): 85%
- % Activity Data 2 ([11]; repetition 2): 87%
- number of revertant colonies ([12]; TA100, 156 ~ 5000 μg/plate): did not increase
- mutation factor ([12]; TA100, all concentrations 156 ~ 5000 μg/plate): less than 1.6
- % Activity Data 1 ([13]; repetition 1): 94%
- % Activity Data 2 ([13]; repetition 2): 92%
- unique species (Venn diagram vs WT and AOM/DSS groups) [14]: three
- BCL-x expression vs. Control and statistical significance [15]: Down-regulation, ^*
- CCL20/MIP-3α expression vs. Control and statistical significance [15]: Down-regulation, ^**
- CEACAM-5 expression vs. Control and statistical significance [15]: Down-regulation, ^*
- CXCL8/IL-8 expression vs. Control and statistical significance [15]: Down-regulation, ^*
- CapG expression vs. Control and statistical significance [15]: Down-regulation, ^*
- Cathepsin B expression vs. Control and statistical significance [15]: Down-regulation, ^*
- Cathepsin D expression vs. Control and statistical significance [15]: Down-regulation, ^*
- Cathepsin S expression vs. Control and statistical significance [15]: Down-regulation, ^**
- Dkk-1 expression vs. Control and statistical significance [15]: Down-regulation, ^**
- EGFR expression vs. Control and statistical significance [15]: Down-regulation, ^*
- Enolase 2 expression vs. Control and statistical significance [15]: Down-regulation, ^*
- ErbB2/Her2 expression vs. Control and statistical significance [15]: Down-regulation, ^**
- ErbB3/Her3 expression vs. Control and statistical significance [15]: Down-regulation, ^***
- Galectin-3 expression vs. Control and statistical significance [15]: Down-regulation, *
- HNF-3β expression vs. Control and statistical significance [15]: Down-regulation, ^**
- HO-1/HMOX1 expression vs. Control and statistical significance [15]: Down-regulation, ^***
- P27/Kip1 expression vs. Control and statistical significance [15]: Down-regulation, ^**
- PDGF-AA expression vs. Control and statistical significance [15]: Down-regulation, ^*
- Progranulin expression vs. Control and statistical significance [15]: Down-regulation, ^*
- Prostasin/Prss8 expression vs. Control and statistical significance [15]: Down-regulation, ^*
- Survivin expression vs. Control and statistical significance [15]: Down-regulation, ^***
- TROP1/EpCAM expression vs. Control and statistical significance [15]: Down-regulation, ^***
- % Activity Data 1 ([16]; repetition 1): 99%
- % Activity Data 2 ([16]; repetition 2): 98%
